Assays:
[1] = tested on: LPS-activated RAW 264.7 macrophages; assay: iNOS and COX-2 expression by Western blot; assay type: cell-based, murine; conditions: 30 min pretreatment, LPS 24 h
Method: Cells were washed twice with ice-cold phosphate-buffered saline (PBS) and lysed on ice for 5 min with lysis buffer (20 mM Tris-HCl, pH 7.5, 150 mM NaCl, 1 mM Na 2EDTA, 1 mM EGTA, 1% Triton X-100, 2.5 mM sodium pyrophosphate, 1 mM beta-glycerophosphate, 1 mM Na 3VO4, 1 µg/ml of leupeptin, 1 mM PMSF, protease inhibitor cocktail). The lysate was then centrifuged at 12,000 x g at 4 °C for 10 min and the pellet discarded. Proteins in the supernatant were separated by SDS-PAGE and electrotransferred to a PVDF membrane (EMD Millipore Corporation), which was then blocked by incubation for 1 h at room temperature in blocking buffer [(5% nonfat milk in PBS containing 0.1% Tween 20 (PBST)], then incubated for 2 h at room temperature with the primary antibody diluted in blocking buffer. After three washes in PBST, the membrane was incubated for 1 h at room temperature with an appropriate HRP-conjugated secondary antibody diluted in blocking buffer and developed using an enhanced chemiluminescence Western blot detection system (EMD Millipore Corporation).
To investigate the inhibitory effect of compounds 1h, 1i, and 1n on the LPS-induced inflammatory response, NO levels in the supernatants of RAW 264.7 macrophages incubated with DMSO (vehicle) or compound 1h, 1i, or 1n for 30 min before, and during, incubation for 24 h with LPS (1 µg/ml) were measured by the Griess reaction. […] We next investigated their effect on the expression of iNOS, the NO producing enzyme, using Western blots.
Figure 2 Effect of polyenylpyrrole derivatives on the expression of inflammatory mediators in LPS-stimulated RAW 264.7 macrophages. In (A) and (C), the cells (5 × 10^5/ml; 1 ml) were incubated for 30 min with 2.5-40 µM compound 1h, 1i, or 1n or DMSO (vehicle), then LPS (1 µg/ml) was added and incubation continued for 24 h, then NO (A) or IL-6 or TNF-α (C) in the culture medium was assayed by the Griess reaction or ELISA, respectively. In (B), cells (5 × 10^5/ml; 1 ml) were pretreated for 30 min with 2.5-40 µM compound 1h or DMSO, then LPS (1 µg/ml) was added and incubation continued for 24 h, then expression of iNOS and COX-2 was measured by Western blotting. The fold increase is the intensity of the band of interest divided by that of the actin band normalized to the corresponding value for the 0 LPS/0 inhibitor control.

[2] = tested on: RAW 264.7 cells; assay: AlamarBlue assay for cell viability (cytotoxicity); conditions: read-out: IC50 (cytotoxicity), RAW 264.7 macrophages, 24 h treatment, 6.25-100 µM tested
[3] = tested on: LPS-activated J774A.1 macrophages; assay: IL-6 and TNF-α secretion by ELISA; assay type: cell-based, murine; conditions: J774A.1, 10-40 µM, LPS 1 µg/ml 24 h
Method: (§1) The effects of the test samples on IL-1β, TNF-α, and IL-6 production were measured by ELISA according to the manufacturer’s instructions. In brief, 50 µl of biotinylated antibody reagent and 50 µl of supernatant were added to a stripwell plate precoated with anti-mouse IL-1β, TNF-α, or IL-6 antibodies, which was then incubated at room temperature for 2 h. After washing the plate three times with washing buffer, 100 µl of diluted streptavidin-HRP concentrate was added to each well and the plate incubated at room temperature for 30 min. The washing process was repeated, then 100 µl of a premixed tetramethylbenzidine substrate solution was added to each well and the plate incubated at room temperature in the dark for 30 min. After addition of 100 µl of stop solution to each well, the absorbance at 450 nm of each well was measured on a microplate reader.
(§2) Figure 3 Effect of compound 1h on LPS-induced secretion of IL-6 and TNF-α by J774A.1 macrophages, peritoneal macrophages, and JAWSII dendritic cells. (A) J774A.1 macrophages, (B) peritoneal macrophages, or (C) JAWSII dendritic cells (all 4 × 10^5/ml; 1 ml) were incubated for 30 min with 10-40 µM compound 1h or DMSO, then LPS (1 µg/ml) was added and incubation continued for 24 h, then IL-6 levels (left panels) and TNF-α levels (right panels) in the culture medium were measured by ELISA. The data are expressed as the mean ± SD for three separate experiments. *, **, and *** indicate a significant difference at the level of p < 0.05, p < 0.01, or p < 0.001, respectively, compared to the DMSO/LPS group.

[4] = tested on: LPS-activated JAWSII dendritic cells; assay: IL-6 and TNF-α secretion by ELISA; assay type: cell-based, murine; conditions: 10-40 µM, LPS 1 µg/ml 24 h
Method: as §1, §2

[5] = tested on: ATP-activated LPS-primed J774A.1 macrophages; assay: Intracellular ROS production (DCF fluorescence), ATP-induced; assay type: cell-based, murine
Method: Intracellular ROS production was measured by detecting the fluorescence intensity of the 2’, 7’-dichlorofluorescein, the oxidation product of 2’, 7’-dichlorofluorescein diacetate (Molecular Probes, Eugene, OR). […] In another, J774A.1 macrophages (5 × 10^5/ml; 0.1 ml) were incubated with LPS (1 µg/ml) for 6 h, then vehicle, compound 1h (20 µM), or DPI (25 µM) was added for 30 min. 2’, 7’-dichlorofluorescein diacetate (2 µM) was then added for 30 min before incubation with ATP (5 mM) for the indicated time; while, in another, the order of addition of compound1h/DPI and LPS was reversed. The fluorescence intensity of 2’, 7’-dichlorofluorescein was detected at an excitation wavelength of 485 nm and an emission wavelength of 530 nm on a microplate absorbance reader (Bio-Rad Laboratories, Inc).
In (A), J774A.1 macrophages (1 × 10^6/ml; 1 ml) were incubated with LPS (1 µg/ml) for 6 h, then with compound 1h (20 µM), the NADPH oxidase inhibitor DPI (25 µM), or DMSO (vehicle) for 30 min in the continued presence of LPS, then 2’,7’-dichlorofluorescein diacetate (2 µM) was added for 30 min, followed by ATP (5 mM) for the indicated time, then ROS levels were determined by measuring the mean fluorescence intensity (MFI) of the fluorophore carboxyl-DCF and expressing this value relative to that at time zero. In (B), J774A.1 macrophages (1 × 10^6/ml; 1 ml) were incubated with compound 1h (20 µM), DPI (25 µM), or DMSO (vehicle) for 30 min, then LPS (1 µg/ml) was added for 6 h; the cells were then incubated with 2’,7’-dichlorofluorescein diacetate (2 µM) for 30 min, then with ATP (5 mM) for the indicated time and ROS levels were measured by detection of the fluorescence intensity of the fluorophore carboxyl-DCF and expressed relative to that at time zero.

O=c1cc(O)cc(/C=C/C=C/C=C/C=C/c2[nH]ccc2Cl)o1 [compound 1h]
COX-2 expression ([1]; 0-40 µM): did not affect expression of COX-2 | LPS-induced iNOS expression ([1]; 0-40 µM): reduced LPS-induced iNOS expression | Concentration at which reduction of LPS-induced iNOS expression is significant ([1]; Western blot): 5 to 40 µM | IC50 [2]: > 100 µM | LPS-induced IL-6 secretion [3]: reduced secretion of IL-6 and TNF-α | LPS-induced TNF-α secretion [3]: reduced secretion of IL-6 and TNF-α | LPS-induced IL-6 secretion [4]: reduced LPS-induced IL-6 and TNF-α secretion | LPS-induced TNF-α secretion [4]: reduced LPS-induced IL-6 and TNF-α secretion | ATP-induced ROS production, compound added after LPS priming ([5]; J774A.1, LPS 6 h, then compound 1h 20 µM or DPI 25 µM 30 min, ATP 5 mM 0-40 min): slightly reduced ATP-induced ROS production at 40 min | ATP-induced ROS production, compound added 30 min before LPS priming ([5]; J774A.1, compound 1h 20 µM or DPI 25 µM 30 min, then LPS 6 h, then ATP 5 mM): significantly inhibited ATP-induced ROS production

Source: paper PMC3792051, “Polyenylpyrrole Derivatives Inhibit NLRP3 Inflammasome Activation and Inflammatory Mediator Expression by Reducing Reactive Oxygen Species Production and Mitogen-Activated Protein Kinase Activation” (PLoS ONE, 2013)
